Data taken from publication PMC9883482, “TPX2 enhances the transcription factor activation of PXR and enhances the resistance of hepatocellular carcinoma cells to antitumor drugs” (Cell Death & Disease, 2023).

Columns and labels:
PXR = molecular target: T1, PXR (Homo sapiens, UniProt O75469); conditions: in combination with rifampicin
T1 sequence (O75469 1-434): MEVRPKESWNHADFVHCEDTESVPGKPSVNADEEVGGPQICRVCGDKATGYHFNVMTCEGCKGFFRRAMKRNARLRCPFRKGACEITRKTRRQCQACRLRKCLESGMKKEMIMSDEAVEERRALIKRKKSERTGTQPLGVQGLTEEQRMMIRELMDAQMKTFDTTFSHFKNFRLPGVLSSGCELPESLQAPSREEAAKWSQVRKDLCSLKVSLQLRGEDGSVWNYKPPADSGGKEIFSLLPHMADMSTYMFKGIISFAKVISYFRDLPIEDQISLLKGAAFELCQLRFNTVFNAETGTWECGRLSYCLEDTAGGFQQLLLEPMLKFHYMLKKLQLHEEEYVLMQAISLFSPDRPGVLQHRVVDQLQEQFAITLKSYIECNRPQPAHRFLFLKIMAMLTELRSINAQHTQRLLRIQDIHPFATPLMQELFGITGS

HepG2 cells = experiment: MTT cell survival examination; assay type: cell-based; conditions: Homo sapiens, HepG2, 48 h
Method: (§1) In the process of dissolving these pure drug powders, stirring, vortexing, and ultrasonic vibration were used to assist dissolution [17, 18]. After a drug was fully dissolved, Dulbecco’s modified Eagle’s medium (DMEM) without fetal bovine serum (FBS) was used to dilute the drug dissolved in DMSO. For doxorubicin, we used DMEM without FBS to dissolve the drug. When performing cell viability experiments (tetrazolium [MTT] assays), these drugs were diluted.
(§2) The antitumor activity of antitumor drugs injuring HCC cells was examined by using MTT assay. After culturing the HCC cells, transfection experiments were performed, and the cells were then seeded in 96-well cell culture plates (about 8000 cells per well). […] After the cells were treated with the drug for about 48 h, a dose of […] tetrazolium (MTT) reagent was added, and cells with the MTT reagent were incubated for 5 to 6 h. After incubation with the MTT was complete, all liquid in the 96-well cell culture plate was discarded, and about 100 μl of DMSO was added to each well to dissolve the cell samples. During the process of lysing the cell samples, the cell culture plate was shaken for 15 minutes to completely lyse the cells. After the lysis step was complete, the cell culture plate was centrifuged at 12,000 rpm at 4 °C, and the supernatant was collected for evaluation.
(§3) All statistical analyses in the presence work were performed using the GraphPad 8.0 (GraphPad Software Corporation, Armonk, NY, USA). […] For the survival analysis data, the survival curves were analyzed by the log-rank (Mantel–Cox) test to detect the P-value of the survival curve, the median survival time, and the 95% confidence interval (CI). For the co-relationship analysis, the data were analyzed by linear regression to determine the overall trend of a group of data points. […] If the slope was positive, the horizontal coordinate was positively related to the vertical coordinate, and if the slope was negative, the horizontal coordinate was negatively related to the vertical coordinate. For the multi-grouped data, the ordinary one-way analysis of variance (ANOVA) and multiple comparison methods were used. An ANOVA was used to examine whether any difference between groups could be detected. The multiple comparisons (t-test) was used to detect differences between pairs of data.

MHCC97-H cells = experiment: MTT cell survival examination; assay type: cell-based; conditions: Homo sapiens, MHCC97H, 48 h
Method: as §1, §2, §3

MHCC97-L cells = experiment: MTT cell survival examination; assay type: cell-based; conditions: Homo sapiens, MHCC97L, 48 h, median (95% CI)
Method: as §1, §2, §3

[1] = test system: cyp3a4 and mdr-1 mRNA (PXR downstream genes); conditions: human
[2] = HepG2, Control, median (95% CI)
[3] = HepG2, TPX2 overexpression, median (95% CI)

CC[C@]1(O)C[C@H]2CN(CCc3c([nH]c4ccccc34)[C@@](C(=O)OC)(c3cc4c(cc3OC)N(C=O)[C@H]3[C@@](O)(C(=O)OC)[C@H](OC(C)=O)[C@]5(CC)C=CCN6CC[C@]43[C@@H]65)C2)C1 [vincristine]
effect on TPX2/rifampicin-driven PXR recruitment to cyp3a4 promoter or enhancer (PXR): almost blocked

COc1cc2nccc(Oc3ccc(NC(=O)NC4CC4)c(Cl)c3)c2cc1C(N)=O [lenvatinib]
IC50 (HepG2 cells; [2]): 1300 nM
IC50 (HepG2 cells; [3]): 5890 nM
IC50 (HepG2 cells; HepG2, siTPX2, median (95% CI)): 330 nM
IC50 (MHCC97-H cells; Control, median (95% CI)): 1070 nM
IC50 (MHCC97-H cells; siTPX2, median (95% CI)): 500 nM
IC50 (MHCC97-L cells; Control): 1940 nM
IC50 (MHCC97-L cells; TPX2 overexpression): 5730 nM

COc1cc([C@@H]2c3cc4c(cc3[C@@H](O[C@@H]3O[C@@H]5CO[C@@H](C)O[C@H]5[C@H](O)[C@H]3O)[C@H]3COC(=O)[C@H]23)OCO4)cc(OC)c1O [etoposide]
IC50 (HepG2 cells; [2]): 460 nM
IC50 (HepG2 cells; [3]): 1930 nM
IC50 (HepG2 cells; HepG2, siTPX2, median (95% CI)): 180 nM
IC50 (MHCC97-H cells; Control, median (95% CI)): 250 nM
IC50 (MHCC97-H cells; siTPX2, median (95% CI)): 100 nM
IC50 (MHCC97-L cells; Control): 380 nM
IC50 (MHCC97-L cells; TPX2 overexpression): 1320 nM

CCc1c2c(nc3ccc(OC(=O)N4CCC(N5CCCCC5)CC4)cc13)-c1cc3c(c(=O)n1C2)COC(=O)[C@]3(O)CC [irinotecan]
IC50 (HepG2 cells; [2]): 300 nM
IC50 (HepG2 cells; [3]): 820 nM
IC50 (HepG2 cells; HepG2, siTPX2, median (95% CI)): 100 nM
IC50 (MHCC97-H cells; Control, median (95% CI)): 520 nM
IC50 (MHCC97-H cells; siTPX2, median (95% CI)): 160 nM
IC50 (MHCC97-L cells; Control): 430 nM
IC50 (MHCC97-L cells; TPX2 overexpression): 970 nM

CC(=O)O[C@H]1C(=O)[C@@]2(C)[C@H]([C@H](OC(=O)c3ccccc3)[C@]3(O)C[C@H](OC(=O)[C@H](O)[C@@H](NC(=O)c4ccccc4)c4ccccc4)C(C)=C1C3(C)C)[C@]1(OC(C)=O)CO[C@@H]1C[C@@H]2O [paclitaxel]
IC50 (HepG2 cells; [2]): 14.8 nM
IC50 (HepG2 cells; [3]): 240 nM
IC50 (HepG2 cells; HepG2, siTPX2, median (95% CI)): 8.31 nM
IC50 (MHCC97-H cells; Control, median (95% CI)): 12.7 nM
IC50 (MHCC97-H cells; siTPX2, median (95% CI)): 4.2 nM
IC50 (MHCC97-L cells; Control): 22 nM
IC50 (MHCC97-L cells; TPX2 overexpression): 150 nM

COc1cc2nccc(Oc3ccc(NC(=O)C4(C(=O)Nc5ccc(F)cc5)CC4)cc3)c2cc1OC [cabozantinib]
IC50 (HepG2 cells; [2]): 880 nM
IC50 (HepG2 cells; [3]): 4780 nM
IC50 (HepG2 cells; HepG2, siTPX2, median (95% CI)): 390 nM
IC50 (MHCC97-H cells; Control, median (95% CI)): 760 nM
IC50 (MHCC97-H cells; siTPX2, median (95% CI)): 260 nM
IC50 (MHCC97-L cells; Control): 1470 nM
IC50 (MHCC97-L cells; TPX2 overexpression): 5030 nM

CNC(=O)c1cc(Oc2ccc(NC(=O)Nc3ccc(Cl)c(C(F)(F)F)c3)c(F)c2)ccn1 [regorafenib]
IC50 (HepG2 cells; [2]): 1010 nM
IC50 (HepG2 cells; [3]): 3650 nM
IC50 (HepG2 cells; HepG2, siTPX2, median (95% CI)): 620 nM
IC50 (MHCC97-H cells; Control, median (95% CI)): 990 nM
IC50 (MHCC97-H cells; siTPX2, median (95% CI)): 750 nM
IC50 (MHCC97-L cells; Control): 1500 nM
IC50 (MHCC97-L cells; TPX2 overexpression): 4930 nM

CC(=O)N1CCN(c2ccc(OCC3COC(Cn4ccnc4)(c4ccc(Cl)cc4Cl)O3)cc2)CC1 (stereo not drawn) [ketoconazole]
effect on rifampicin- and TPX2-induced transcription of PXR downstream genes (mRNA levels) [1]: almost blocked the effects of rifampicin and TPX2

COc1cccc2c1C(=O)c1c(O)c3c(c(O)c1C2=O)C[C@@](O)(C(=O)CO)C[C@@H]3O[C@H]1C[C@H](N)[C@H](O)[C@H](C)O1 [doxorubicin]
IC50 (HepG2 cells; [2]): 330 nM
IC50 (HepG2 cells; [3]): 1590 nM
IC50 (HepG2 cells; HepG2, siTPX2, median (95% CI)): 50 nM
IC50 (MHCC97-H cells; Control, median (95% CI)): 200 nM
IC50 (MHCC97-H cells; siTPX2, median (95% CI)): 60 nM
IC50 (MHCC97-L cells; Control): 250 nM
IC50 (MHCC97-L cells; TPX2 overexpression): 820 nM
